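Where inhibition never reached the appropriate level, the endpoint shown equals the highest concentration tested. Otherwise, values were interpolated linearly from a five-concentration, 48-hour dose response in 96-well plates. GI50 is the concentration that inhibits growth by half.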 The source made the active and inactive calls. Cut-off read from the data, not from the text of the source: active = GI50 up to about 1.1 µM and inactive = higher.
Experiments:
Assay in all cases: growth of human tumour cells (NCI), 48 h
Hs-578T = test system: Hs-578T
SK-MEL-28 = test system: SK-MEL-28
HCT-116 = test system: HCT-116
OVCAR-8 = test system: OVCAR-8
MDA-MB-231 = test system: MDA-MB-231
SF-539 = test system: SF-539
NCI-H226 = test system: NCI-H226
CAKI-1 = test system: CAKI-1
Malme-3M = test system: Malme-3M
K562 = test system: K562
BT-549 = test system: BT-549
CCRF-CEM = test system: CCRF-CEM
RXF 393 = test system: RXF 393
NCI/ADR-RES = test system: NCI/ADR-RES
SN12C = test system: SN12C
M14 = test system: M14
HCC 2998 = test system: HCC 2998
DU-145 = test system: DU-145
ACHN = test system: ACHN
HOP-92 = test system: HOP-92

SMILES	GI50 (Hs-578T)	GI50 (SK-MEL-28)	GI50 (HCT-116)	GI50 (OVCAR-8)	GI50 (MDA-MB-231)	GI50 (SF-539)	GI50 (NCI-H226)	GI50 (CAKI-1)	GI50 (Malme-3M)	GI50 (K562)	GI50 (BT-549)	GI50 (CCRF-CEM)	GI50 (RXF 393)	GI50 (NCI/ADR-RES)	GI50 (SN12C)	GI50 (M14)	GI50 (HCC 2998)	GI50 (DU-145)	GI50 (ACHN)	GI50 (HOP-92)
CCOC(=O)NN(C(=O)OCC)c1c(C)cc(C)cc1C	> 100 µM (inactive)	> 100 µM (inactive)	> 100 µM (inactive)	> 100 µM (inactive)	> 100 µM (inactive)	> 100 µM (inactive)	> 100 µM (inactive)	> 100 µM (inactive)	> 100 µM (inactive)	> 100 µM (inactive)	> 100 µM (inactive)	> 100 µM (inactive)	21 µM (inactive)	> 100 µM (inactive)	> 100 µM (inactive)	> 100 µM (inactive)	> 100 µM (inactive)	> 100 µM (inactive)	–	–
COc1cccc(-c2ccc3c4c2O[C@H]2C(=O)CC[C@@]5(O)[C@@H](C3)N(CC3CC3)CC[C@]425)c1	12.3 µM (inactive)	27.4 µM (inactive)	17.5 µM (inactive)	18.5 µM (inactive)	15.8 µM (inactive)	14.7 µM (inactive)	11.6 µM (inactive)	16.6 µM (inactive)	20.9 µM (inactive)	13.5 µM (inactive)	18.4 µM (inactive)	7.29 µM (inactive)	8.53 µM (inactive)	19.4 µM (inactive)	18.5 µM (inactive)	14.5 µM (inactive)	–	24.4 µM (inactive)	18.1 µM (inactive)	15.3 µM (inactive)
CC(C)(C)CNCCCNc1ccc(Cl)cc1	40.1 µM (inactive)	20.9 µM (inactive)	55.1 µM (inactive)	> 100 µM (inactive)	23.2 µM (inactive)	92.9 µM (inactive)	18.5 µM (inactive)	–	22 µM (inactive)	< 0.01 µM (active)	70.6 µM (inactive)	35.8 µM (inactive)	15.7 µM (inactive)	> 100 µM (inactive)	28.7 µM (inactive)	23 µM (inactive)	–	> 100 µM (inactive)	> 100 µM (inactive)	13.6 µM (inactive)
CCN1c2nc3ccccc3nc2N(CC)c2nc3ccccc3nc21	71.4 µM (inactive)	46.5 µM (inactive)	26.9 µM (inactive)	60.1 µM (inactive)	70.8 µM (inactive)	25.8 µM (inactive)	51.8 µM (inactive)	55.8 µM (inactive)	70.8 µM (inactive)	34 µM (inactive)	80.5 µM (inactive)	48.3 µM (inactive)	55.5 µM (inactive)	63.8 µM (inactive)	47.1 µM (inactive)	61.9 µM (inactive)	50.5 µM (inactive)	65.8 µM (inactive)	39.1 µM (inactive)	–
O=C(CC1(O)C(=O)Nc2c(Cl)cc(Cl)cc21)c1ccc(Br)cc1Br (centres undefined)	0.0646 µM (active)	14.3 µM (inactive)	4.31 µM (inactive)	7.98 µM (inactive)	14.7 µM (inactive)	14.6 µM (inactive)	19 µM (inactive)	4.24 µM (inactive)	11.5 µM (inactive)	0.946 µM (active)	10.5 µM (inactive)	0.474 µM (active)	11.7 µM (inactive)	–	13.1 µM (inactive)	5.96 µM (inactive)	16.7 µM (inactive)	16.3 µM (inactive)	14.1 µM (inactive)	2.4 µM (inactive)
C[N+](C)([O-])CCC=C1c2ccccc2CCc2ccccc21	25.6 µM (inactive)	33.5 µM (inactive)	29.6 µM (inactive)	23.4 µM (inactive)	30.7 µM (inactive)	36.9 µM (inactive)	31.4 µM (inactive)	28.8 µM (inactive)	18.5 µM (inactive)	19.2 µM (inactive)	41.9 µM (inactive)	18.6 µM (inactive)	20.5 µM (inactive)	22 µM (inactive)	24.2 µM (inactive)	31 µM (inactive)	–	26 µM (inactive)	35 µM (inactive)	25.5 µM (inactive)
COc1c(OC/C=C(\C)CCC=C(C)C)ccc2ccc(=O)oc12 [COLLININ]	90.4 µM (inactive)	> 100 µM (inactive)	> 100 µM (inactive)	> 100 µM (inactive)	> 100 µM (inactive)	> 100 µM (inactive)	–	> 100 µM (inactive)	–	> 100 µM (inactive)	53.3 µM (inactive)	> 100 µM (inactive)	–	95.9 µM (inactive)	> 100 µM (inactive)	> 100 µM (inactive)	> 100 µM (inactive)	> 100 µM (inactive)	> 100 µM (inactive)	77.4 µM (inactive)
